# Test results as given in PMC2720784 (Biochemistry, 2009).
# Substitutions are numbered along the chain they refer to.
# Key:
# [1] = molecular target: T1, R343V hNCRD (Homo sapiens, UniProt P35247, R363V); test: Mannan competition assay, R343V; format: binding; conditions: for change in affinity of R343V relative to wild-type: competition assays
# T1 sequence (P35247 223-375 R363V limits assumed): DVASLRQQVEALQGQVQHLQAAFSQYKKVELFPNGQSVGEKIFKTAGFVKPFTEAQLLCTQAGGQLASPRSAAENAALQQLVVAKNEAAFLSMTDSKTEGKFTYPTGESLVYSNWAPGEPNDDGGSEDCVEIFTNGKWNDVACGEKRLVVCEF
# [2] = molecular target: T2, R343A hNCRD (Homo sapiens, UniProt P35247, R363A); test: Mannan competition assay, R343A; conditions: read-out: I50 for inhibition of binding to mannan, one experiment
# T2 sequence (P35247 223-375 R363A limits assumed): T1 sequence (P35247 223-375 R363V limits assumed) with V141A
# [3] = system: Phil82 IAV; format: cell-based, influenza A virus; conditions: n=5
# [4] = system: Phil82 IAV; format: binding, influenza A virus
# [5] = system: Phil82 IAV; format: cell-based, influenza A virus
compound,measurement,setting,value
OC[C@H]1OC(O)[C@@H](O)[C@@H](O)[C@@H]1O (stereo partly drawn) [D-mannose],change in affinity of R343V relative to wild-type,[1],no significant increase in affinity
"CO[C@H]1O[C@H](CO[C@H]2O[C@H](CO)[C@@H](O)[C@H](O)[C@@H]2O)[C@@H](O)[C@H](O[C@H]2O[C@H](CO)[C@@H](O)[C@H](O)[C@@H]2O)[C@@H]1O [TM core, methyl 3,6-Di-O-(α-D-mannopyranosyl)-α-D-mannopyranoside]",change in affinity of R343V relative to wild-type,[1],no significant increase in affinity
"OC[C@H]1O[C@H](O[C@@H]2C(O)O[C@H](CO)[C@@H](O)[C@@H]2O)[C@@H](O)[C@@H](O)[C@@H]1O (stereo partly drawn) [alpha1–2 DM, alpha1–2 linked dimannose]",increase in affinity as compared to wild-type,[1]; R343V vs wild-type hNCRD,7 fold
same,change in affinity of R343V relative to wild-type,[1],greatly enhanced binding
same,IC50,"[1]; read-out: I50 for inhibition of binding to mannan, R343V, n=5",210 ± 60 µM
same,IC50,[2],362 µM
OC[C@H]1O[C@H](O[C@H]2[C@H](O)[C@@H](CO)OC(O)[C@H]2O)[C@@H](O)[C@@H](O)[C@@H]1O (stereo partly drawn) [α1–3 dimannose],change in affinity of R343V relative to wild-type,[1],no significant increase in affinity
OC[C@H]1O[C@H](OC[C@H]2OC(O)[C@@H](O)[C@@H](O)[C@@H]2O)[C@@H](O)[C@@H](O)[C@@H]1O (stereo partly drawn) [α1–6 dimannose],change in affinity of R343V relative to wild-type,[1],no significant increase in affinity
"hNCRD Wild type: N-terminally tagged trimeric neck+carbohydrate recognition domain fusion protein of human SP-D, wild type",HA Inhibitory Concentration,[3],>50 µg/mL
same,"binding to IAV, solid phase binding assay",[4],no measurable binding
same,viral neutralizing activity,[5],lacked
